Experimental findings from patent US11478460B2, “Diaryl substituted 6,5-fused ring compounds as C5aR inhibitors” (CHEMOCENTRYX, INC., priority 2017, dated 2022) are described below.

A word on the IC50: it is the concentration that inhibits the measured activity by half.

The structures appear in SMILES notation.

The test deals with C5aR (Homo sapiens (Human), UniProt P21730). Briefly: Chemotaxis assay using U937 cells (C5aR mediated migration). The format is cell-based. The conditions noted are these: read-out: Mig IC50. The gist of the method: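 U937 monocytic cells, pretreated overnight with 0.5 mM cyclic AMP, placed at 100,000 cells in the upper well above 5 μm polycarbonate filters. Lower well held 0.03 nM C5a plus compound in HBSS/1% FBS; after 1.5 h at 37° C migrated cells counted directly or by CyQuant, giving IC50.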
Chain of C5aR (P21730 whole entry): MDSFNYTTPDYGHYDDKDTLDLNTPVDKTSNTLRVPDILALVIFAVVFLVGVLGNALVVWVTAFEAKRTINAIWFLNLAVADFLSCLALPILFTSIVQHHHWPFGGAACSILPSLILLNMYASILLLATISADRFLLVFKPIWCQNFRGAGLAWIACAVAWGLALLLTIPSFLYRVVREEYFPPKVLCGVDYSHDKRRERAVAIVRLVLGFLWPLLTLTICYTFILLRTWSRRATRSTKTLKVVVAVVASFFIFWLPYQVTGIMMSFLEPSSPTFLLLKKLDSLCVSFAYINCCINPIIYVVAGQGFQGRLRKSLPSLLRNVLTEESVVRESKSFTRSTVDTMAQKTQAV
Take `Cc1cccc(OCC(C)C)c1-n1nc2c(c1-c1ccc(NC(N)=O)c(F)c1)CN(c1ccc(C(F)(F)F)cc1Cl)CC2` [Example 1.241]: the IC50 was at most 5 nM.
In the case of `Cc1cccc(OCC(C)C)c1-n1nc2c(c1-c1ccc(NC(N)=O)cc1)CN(CC1(C(F)(F)F)CC1)CC2` [Example 1.372] it was 5 to 50 nM; in that of `Cc1cccc(OCC(C)C)c1-n1nc2c(c1-c1ccc(NC(N)=O)cc1)CN(C(=O)c1ccccc1C(C)C)CC2` [Example 1.434], 50 to 500 nM; in that of `Cc1cccc(OCC(C)C)c1-n1nc2c(c1-c1ccc(NC(N)=O)cc1)CN(Cc1c(C(F)(F)F)ccc(Cl)c1F)CC2` [Example 1.299], at most 5 nM.
Take `COc1cc(-c2c3c(nn2-c2c(C)cccc2OCC(C)C)CCN(c2ncc(C(F)(F)F)cc2F)C3)ccc1NC(N)=O` [Example 1.267]: the IC50 was 5 to 50 nM.
To `CCC(c1ccccc1)N1CCc2nn(-c3c(C)cccc3OCC(C)C)c(-c3cc(F)c(NC(N)=O)cc3F)c2C1` (stereo not drawn) [Example 1.145] belongs at most 5 nM.
In the case of `Cc1cccc(OCC(C)C)c1-n1nc2c(c1-c1ccc(NC(N)=O)cc1)CN(c1ccc(F)c(C(F)(F)F)c1)CC2` [Example 1.369] it was 5 to 50 nM; in that of `Cc1cccc(OCC(C)C)c1-n1nc2c(c1-c1ccc(C(N)=O)cc1)CN(C(=O)OC(C)(C)C)CC2` [Example 1.411], over 500 nM.
To `CCc1cccc(CC)c1-n1nc2c(c1-c1cc(F)c(NC(N)=O)cc1F)CN(Cc1ccc(C(F)(F)F)cc1C(F)(F)F)C(C)(C)C2` [Example 1.059] belongs at most 5 nM; to `CCC(C)(C)N1CCc2nn(-c3c(C)cccc3OCC(C)C)c(-c3cc(F)c(NC(N)=O)cc3F)c2C1` [Example 1.214], at most 5 nM; to `Cc1cccc(OCC(C)C)c1-n1nc2c(c1-c1ccc(NC(N)=O)cc1)CN(C(C)c1ccc(C(F)(F)F)cc1)CC2` (stereo not drawn) [Example 1.306], at most 5 nM.
For the molecule `Cc1cccc(OCC(C)C)c1-n1nc2c(c1-c1cc(F)c(NC(N)=O)cc1F)CN(c1ncccc1Cl)CC2` [Example 1.170], the half-maximal inhibitory concentration (IC50) is at most 5 nM.
Take `CC(C)COc1cccc(F)c1-n1nc2c(c1-c1cc(F)c(NC(N)=O)cc1F)CN(c1ncc(C(F)(F)F)cc1F)CC2` [Example 1.203]: the IC50 was at most 5 nM.
Turning to `Cc1cccc(C)c1-n1nc2c(c1-c1cc(F)c(O)cc1F)CN(c1ncc(Cl)cc1Cl)CC2` [Example 1.112], the IC50 is at most 5 nM.
In the case of `Cc1cccc(OCC(C)C)c1-n1nc2c(c1-c1ccc(NC(N)=O)c(Cl)c1)CN(c1ncc(C(F)(F)F)cc1F)CC2` [Example 1.275] it was at most 5 nM.
In the case of `COc1cccc(C)c1-n1nc2c(c1-c1ccc(NC(C)=O)cc1)CN(c1ccccc1C(C)C)CC2` [Example 1.483] it was over 500 nM; in that of `Cc1cccc(OCC(C)C)c1-n1nc2c(c1-c1ccc(NC(N)=O)cc1)CN(CC(C)(C)C#N)CC2` [Example 1.349], 50 to 500 nM; in that of `Cc1ccc(C(F)(F)F)c(CN2CCc3nn(-c4c(C)cccc4OCC(C)C)c(-c4ccc(NC(N)=O)cc4)c3C2)c1` [Example 1.300], at most 5 nM.
On to `CCc1cccc(CC)c1-n1nc2c(c1-c1cc(F)c(NC(N)=O)cc1F)CN(c1ncc(Cl)cc1Cl)CC2` [Example 1.201], for which the half-inhibitory concentration (IC50) was at most 5 nM.
In the case of `Cc1cccc(C)c1CN1CCc2nn(-c3c(C)cccc3OCC(C)C)c(-c3ccc(NC(N)=O)cc3)c2C1` [Example 1.376] it was 5 to 50 nM.
To `Cc1cccc(OCC(C)C)c1-n1nc2c(c1-c1ccc(NC(N)=O)cc1)CN(Cc1cc(F)ccc1F)CC2` [Example 1.310] belongs 5 to 50 nM; to `CCc1cccc(CC)c1-n1nc2c(c1-c1ccc(NC(N)=O)cc1)CN(c1ncc(C(F)(F)F)cc1F)CC2` [Example 1.301], 5 to 50 nM.
On to `COc1cc(NC(N)=O)c(F)cc1-c1c2c(nn1-c1c(C)cccc1C)CCN(c1ccc(Cl)cc1Cl)C2` [Example 1.114], for which the 50% inhibitory concentration (IC50) was at most 5 nM.
To `CCc1cccc(CC)c1-n1nc2c(c1-c1cc(F)c(NC(N)=O)cc1F)CN(Cc1ccc(Cl)cc1C(F)(F)F)[C@@H](C)C2` [Example 1.015] belongs at most 5 nM.
For `Cc1cccc(OCC(C)C)c1-n1nc2c(c1-c1ccc(NC(N)=O)cc1)CN(Cc1cc(Cl)ccc1C(F)(F)F)CC2` [Example 1.325], the IC50 was at most 5 nM.
Turning to `COc1cccc(C)c1-n1nc2c(c1-c1ccc(NC3CCCC3)cc1)CN(c1ccccc1C)CC2` [Example 1.490], the IC50 is over 500 nM.
For the molecule `Cc1cccc(CC(C)C)c1-n1nc2c(c1-c1ccc(NC(N)=O)cc1)CN(C(=O)OC(C)(C)C)CC2` [Example 1.415], the IC50 was 50 to 500 nM.
In the case of `Cc1cccc(OCC(C)C)c1-n1nc2c(c1-c1ccc(NC(N)=O)c(F)c1)CN(CC1CCCC1)CC2` [Example 1.272] it was at most 5 nM.
In the case of `Cc1cccc(OCC(C)C)c1-n1nc2c(c1-c1ccc(NC(N)=O)cc1)CN(Cc1cc(Cl)ccc1Cl)CC2(C)C` [Example 1.261] it was over 500 nM.
Consider `CC(C)COc1ccccc1-n1nc2c(c1-c1cc(F)c(NC(N)=O)cc1F)CN(C(C)(C)c1ccccc1)CC2` [Example 1.199], for which the IC50 is at most 5 nM.
In the case of `Cc1cccc(OCC(C)C)c1-n1nc2c(c1-c1ccc(NC(N)=O)c(F)c1)CN(Cc1nccn1C)CC2` [Example 1.233], the 50% inhibitory concentration (IC50) is over 500 nM.
In the case of `Cc1cccc(OCC(C)C)c1-n1nc2c(c1-c1cc(F)c(NC(N)=O)cc1F)CN(C(C)(C)c1ccccc1)CC2` [Example 1.207] it was at most 5 nM.
In the case of `Cc1cccc(OCC(C)C)c1-n1nc2c(c1-c1ccc(NC(N)=O)cc1)CN(C(=O)c1ccc(C(C)(C)C)cc1)CC2` [Example 1.432] it was 50 to 500 nM; in that of `Cc1cccc(OCC(C)C)c1-n1nc2c(c1-c1ccc(NC(N)=O)cc1)CN(C(C)c1ccc(C(F)(F)F)cc1)CC2` (stereo not drawn) [Example 1.303], 5 to 50 nM; in that of `CCc1cccc(CC)c1-n1nc2c(c1-c1cc(F)c(NC(N)=O)cc1F)CN(C(=O)C(C)C)C(C)(C)C2` [Example 1.032], at most 5 nM.
To `CCOc1cccc(C)c1-n1nc2c(c1-c1ccc(NC(N)=O)cc1)CN(c1ccccc1C(C)C)CC2` [Example 1.475] belongs 5 to 50 nM.
As to `Cc1cccc(OCC(C)C)c1-n1nc2c(c1-c1ccc(NC(N)=O)cc1)CN(Cc1ccc(C(F)(F)F)cc1)CC2` [Example 1.345], the IC50 was at most 5 nM.
Regarding `CC[C@@H](c1ccccc1)N1CCc2nn(-c3c(C)cccc3C)c(-c3ccc(NC(N)=O)cc3)c2C1` [Example 1.082], the concentration for half-maximal inhibition (IC50) is 50 to 500 nM.
To `CCc1cccc(CC)c1-n1nc2c(c1-c1cc(F)c(NC(N)=O)cc1F)CN(Cc1cc(Cl)ccc1Cl)CC2` [Example 1.070] belongs at most 5 nM.
Take `Cc1cccc(OCC(C)C)c1-n1nc2c(c1-c1cc(F)c(NC(N)=O)cc1Cl)CN(c1ncc(C(F)(F)F)cc1F)CC2` [Example 1.217]: the IC50 was at most 5 nM.
On to `CCc1cccc(CC)c1-n1nc2c(c1-c1cc(F)c(NC(N)=O)cc1F)CN(CC1CCCC1)C(C)(C)C2` [Example 1.043], for which the IC50 is at most 5 nM.
In the case of `Cc1cccc(OCC(C)C)c1-n1nc2c(c1-c1ccc(NC(N)=O)cc1)CN(c1cccc(C(F)(F)F)c1)CC2` [Example 1.412] it was at most 5 nM.
In the case of `CCc1cccc(CC)c1-n1nc2c(c1-c1ccc(NC(N)=O)c(F)c1)CN(C(C)CC(C)C)CC2` (stereo not drawn) [Example 1.215] it was 5 to 50 nM.
For the molecule `Cc1cccc(OCC(C)C)c1-n1nc2c(c1-c1ccc(NC(N)=O)cc1)CN(C1CCCCC1)CC2` [Example 1.406], the IC50 lay in the range of 50 to 500 nM.
In the case of `Cc1cccc(OCC(C)C)c1-n1nc2c(c1-c1ccc(NC(N)=O)cc1)CN(Cc1ccccc1Cl)CC2` [Example 1.313], the half-inhibitory concentration (IC50) lay within 5 to 50 nM.
In the case of `Cc1cccc(OCC(C)C)c1-n1nc2c(c1-c1ccc(NC(N)=O)cc1)CN(CC1CCCC1)CC2` [Example 1.404] it was 5 to 50 nM; in that of `CCc1cccc(CC)c1-n1nc2c(c1-c1cc(F)c(NC(N)=O)cc1F)CN(C(C)(C)CC)CC2` [Example 1.212], at most 5 nM; in that of `CCc1cccc(CC)c1-n1nc2c(c1-c1cc(F)c(NC(N)=O)cc1F)CN(Cc1cc(Cl)ccc1C(F)(F)F)C(C)(C)C2` [Example 1.031], at most 5 nM.
To `Cc1cccc(OCC(C)C)c1-n1nc2c(c1-c1ccc(NC(N)=O)c(F)c1)CN(CC(C)C)CC2` [Example 1.273] belongs 5 to 50 nM; to `Cc1ccc(C(C)(C)C)cc1N1CCc2nn(-c3ccccc3C(C)C)c(-c3ccc(N(C)C(N)=O)cc3)c2C1` [Example 1.402], over 500 nM; to `Cc1cc(NC(N)=O)ccc1-c1c2c(nn1-c1c(C)cccc1OCC(C)C)CCN(c1ncc(C(F)(F)F)cc1F)C2` [Example 1.268], 5 to 50 nM.
Turning to `Cc1ccc(C(C)(C)C)cc1N1CCc2nn(-c3c(C)cccc3C)c(-c3ccc(OC(C)C)cc3)c2C1` [Example 1.446], the IC50 is over 500 nM.
In the case of `Cc1cccc(OCC(C)C)c1-n1nc2c(c1-c1ccc(NC(N)=O)c(F)c1)CN(C(C)C)CC2` [Example 1.264] it was 50 to 500 nM.
In the case of `Cc1ccnc(C)c1-n1nc2c(c1-c1cc(F)c(NC(N)=O)cc1F)CN(C(C)(C)c1ccccc1)CC2` [Example 1.133] it was 50 to 500 nM; in that of `COc1cccc(C)c1-n1nc2c(c1-c1ccc(N)cc1)CN(c1ccccc1C)CC2` [Example 1.491], 50 to 500 nM; in that of `Cc1cccc(OCC(C)C)c1-n1nc2c(c1-c1cc(F)c(NC(N)=O)c(F)c1)CN(c1ncc(C(F)(F)F)cc1F)CC2` [Example 1.263], 50 to 500 nM.
Take `Cc1ccc(C(C)C)cc1N1CCc2nn(-c3c(C)cccc3OCC(C)C)c(-c3ccc(NC(N)=O)cc3)c2C1` [Example 1.396]: the concentration for half-maximal inhibition (IC50) is 5 to 50 nM.
In the case of `CCc1cccc(CC)c1-n1nc2c(c1-c1cc(F)c(NC(N)=O)cc1F)CN(C(C)(C)c1ccccc1)CC2` [Example 1.200] it was at most 5 nM; in that of `Cc1ccc(C(C)(C)C)cc1N1CCc2nn(-c3c(C)cccc3OCC(C)C)c(-c3ccc(N)cc3)c2C1` [Example 1.458], 5 to 50 nM.
In the case of `CCc1cccc(CC)c1-n1nc2c(c1-c1cc(F)c(NC(N)=O)cc1F)CN(Cc1ccc(C(F)(F)F)cc1Cl)CC2` [Example 1.057], the concentration for half-maximal inhibition (IC50) was at most 5 nM.
